Assays:
sedge, umbrella = assay: Test D flooded paddy test; format: in vivo, Cyperus difformis; details: 250 g ai/ha, applied to paddy water, visual rating after 13 to 14 days, scale 0 to 100 (0 no effect, 100 complete control)
Outline: (§1)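 Compounds go straight into paddy water over 2-leaf plants in pots flooded to 3 cm. Greenhouse holding lasts 13 to 14 days. Injury is scored by eye against controls from 0 (none) to 100 (complete control).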

pigweed, palmer [1] = assay: Test C preemergence; format: in vivo, Amaranthus palmeri; details: 0 to 100 scale (0 no effect, 100 complete control); for Pigweed, Palmer plant response rating: preemergence
Outline: (§2)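 Greenhouse herbicide screen, 10-day duration. Test chemicals in solvent/surfactant blend were sprayed onto soil at sowing (pre) or onto 2–10 cm seedlings at one to two leaves (post); injury scored visually against controls, 0 no effect to 100 complete control.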

soybean [2] = assay: Test C preemergence; format: in vivo, Glycine max; details: 0 to 100 scale (0 no effect, 100 complete control); for Soybean plant response rating: preemergence
Outline: as §2

barnyardgrass [3] = assay: Test C preemergence; format: in vivo, Echinochloa crusgalli; details: 0 to 100 scale (0 no effect, 100 complete control); for Barnyardgrass plant response rating: preemergence
Outline: as §2

green foxtail [4] = assay: Test C preemergence; format: in vivo, Setaria viridis; details: 0 to 100 scale (0 no effect, 100 complete control); for Foxtail, Green plant response rating: preemergence
Outline: as §2

wheat [5] = assay: Test C postemergence; format: in vivo, Triticum aestivum; details: 10 days
Outline: as §2

galium = assay: Test C postemergence; format: in vivo, Galium aparine; details: 10 days
Outline: as §2

horseweed = assay: Test C postemergence; format: in vivo, Erigeron canadensis; details: 10 days
Outline: as §2

soybean [6] = assay: Test C postemergence; format: in vivo, Glycine max; details: 10 days
Outline: as §2

corn [7] = assay: Test C postemergence; format: in vivo, Zea mays; details: 10 days
Outline: as §2

ducksalad = assay: Test D flooded paddy test; format: in vivo, Heteranthera limosa; details: 250 g ai/ha, applied to paddy water, visual rating after 13 to 14 days, scale 0 to 100 (0 no effect, 100 complete control)
Outline: as §1

blackgrass [8] = assay: Test C preemergence; format: in vivo, Alopecurus myosuroides; details: 0 to 100 scale (0 no effect, 100 complete control); for Blackgrass plant response rating: preemergence
Outline: as §2

barnyardgrass [9] = assay: Test C postemergence; format: in vivo, Echinochloa crusgalli; details: 10 days
Outline: as §2

ragweed [10] = assay: Test C preemergence; format: in vivo, Ambrosia artemisiifolia; details: 0 to 100 scale (0 no effect, 100 complete control); for Ragweed plant response rating: preemergence
Outline: as §2

blackgrass [11] = assay: Test C postemergence; format: in vivo, Alopecurus myosuroides; details: 10 days
Outline: as §2

ryegrass, Italian [12] = assay: Test C postemergence; format: in vivo, Lolium multiflorum; details: 10 days
Outline: as §2

rice = assay: Test D flooded paddy test; format: in vivo, Oryza sativa; details: 250 g ai/ha, applied to paddy water, visual rating after 13 to 14 days, scale 0 to 100 (0 no effect, 100 complete control)
Outline: as §1

wheat [13] = assay: Test C preemergence; format: in vivo, Triticum aestivum; details: 0 to 100 scale (0 no effect, 100 complete control); for Wheat plant response rating: preemergence
Outline: as §2

barnyardgrass [14] = assay: Test D flooded paddy test; format: in vivo, Echinochloa crus-galli; details: 250 g ai/ha, applied to paddy water, visual rating after 13 to 14 days, scale 0 to 100 (0 no effect, 100 complete control)
Outline: as §1

green foxtail [15] = assay: Test C postemergence; format: in vivo, Setaria viridis; details: 10 days
Outline: as §2

kochia [16] = assay: Test C preemergence; format: in vivo, Bassia scoparia; details: 0 to 100 scale (0 no effect, 100 complete control); for Kochia plant response rating: preemergence
Outline: as §2

pigweed, palmer [17] = assay: Test C postemergence; format: in vivo, Amaranthus palmeri; details: 10 days
Outline: as §2

kochia [18] = assay: Test C postemergence; format: in vivo, Bassia scoparia; details: 10 days
Outline: as §2

ryegrass, Italian [19] = assay: Test C preemergence; format: in vivo, Lolium multiflorum; details: 0 to 100 scale (0 no effect, 100 complete control); for Ryegrass, Italian plant response rating: preemergence
Outline: as §2

corn [20] = assay: Test C preemergence; format: in vivo, Zea mays; details: 0 to 100 scale (0 no effect, 100 complete control); for Corn plant response rating: preemergence
Outline: as §2

ragweed [21] = assay: Test C postemergence; format: in vivo, Ambrosia artemisiifolia; details: 10 days
Outline: as §2

oat, wild [22] = assay: Test C preemergence; format: in vivo, Avena fatua; details: 0 to 100 scale (0 no effect, 100 complete control); for Oat, Wild plant response rating: preemergence
Outline: as §2

oat, wild [23] = assay: Test C postemergence; format: in vivo, Avena fatua; details: 10 days
Outline: as §2

[24] = Preemergence, 500 g ai/ha, visual rating after 10 days
[25] = 125 g ai/ha, postemergence, 0 to 100 scale, 0 no effect, 100 complete control
[26] = Postemergence, 500 g ai/ha, visual 0 to 100 scale (0 no effect, 100 complete control)
[27] = 500 g ai/ha, postemergence, 0 to 100 scale (0 no effect, 100 complete control)

## CC(C)=C(C)c1ncn(-c2cccc(C(=O)N3C[C@H](C)Oc4c(C)cccc43)c2)n1 [Compound 262]
sedge, umbrella
  Plant response rating, Sedge, Umbrella (Flood): 0
pigweed, palmer [1]; [24]
  Plant response rating, Pigweed, Palmer: 90
pigweed, palmer [1]; Test C, 125 g ai/ha
  Pigweed, Palmer plant response rating: 70
Soybean [2]; [24]
  Plant response rating, Soybean: 70
Soybean [2]; Test C, 125 g ai/ha
  Soybean plant response rating: 30
Barnyardgrass [3]; [24]
  Plant response rating, Barnyardgrass: 90
Barnyardgrass [3]; Test C, 125 g ai/ha
  Barnyardgrass plant response rating: 60
Green foxtail [4]; [24]
  Plant response rating, Foxtail, Green: 100
Green foxtail [4]; Test C, 125 g ai/ha
  Foxtail, Green plant response rating: 100
Wheat [5]; [25]
  Plant response rating, Wheat: 30
Wheat [5]; [26]
  Plant response rating, Wheat: 50
galium; [25]
  Plant response rating, Galium: 100
galium; [26]
  Plant response rating, Galium: 100
horseweed; [25]
  Plant response rating, Horseweed: 10
horseweed; [26]
  Plant response rating, Horseweed: 10
Soybean [6]; [25]
  Plant response rating, Soybean: 100
Soybean [6]; [26]
  Plant response rating, Soybean: 100
Corn [7]; [25]
  Plant response rating, Corn: 60
Corn [7]; [26]
  Plant response rating, Corn: 80
ducksalad
  Plant response rating, Ducksalad (Flood): 0
Blackgrass [8]; [24]
  Plant response rating, Blackgrass: 90
Blackgrass [8]; Test C, 125 g ai/ha
  Blackgrass plant response rating: 60
Barnyardgrass [9]; [25]
  Plant response rating, Barnyardgrass: 60
Barnyardgrass [9]; [26]
  Plant response rating, Barnyardgrass: 90
Ragweed [10]; [24]
  Plant response rating, Ragweed: 60
Ragweed [10]; Test C, 125 g ai/ha
  Ragweed plant response rating: 0
Blackgrass [11]; [26]
  Plant response rating, Blackgrass: 90
ryegrass, Italian [12]; [25]
  Plant response rating, Ryegrass, Italian: 80
ryegrass, Italian [12]; [26]
  Plant response rating, Ryegrass, Italian: 90
rice
  Plant response rating, Rice (Flood): 0
Wheat [13]; [24]
  Plant response rating, Wheat: 70
Wheat [13]; Test C, 125 g ai/ha
  Wheat plant response rating: 20
Barnyardgrass [14]
  Plant response rating, Barnyardgrass (Flood): 0
Green foxtail [15]; [25]
  Plant response rating, Foxtail, Green: 70
Green foxtail [15]; [26]
  Plant response rating, Foxtail, Green: 90
Kochia [16]; [24]
  Plant response rating, Kochia: 80
Kochia [16]; Test C, 125 g ai/ha
  Kochia plant response rating: 40
pigweed, palmer [17]; [25]
  Plant response rating, Pigweed, Palmer: 70
pigweed, palmer [17]; [26]
  Plant response rating, Pigweed, Palmer: 90
Kochia [18]; [25]
  Plant response rating, Kochia: 50
Kochia [18]; [26]
  Plant response rating, Kochia: 90
ryegrass, Italian [19]; [24]
  Plant response rating, Ryegrass, Italian: 90
ryegrass, Italian [19]; Test C, 125 g ai/ha
  Ryegrass, Italian plant response rating: 70
Corn [20]; [24]
  Plant response rating, Corn: 40
Corn [20]; Test C, 125 g ai/ha
  Corn plant response rating: 40
Ragweed [21]; [25]
  Plant response rating, Ragweed: 40
Ragweed [21]; [26]
  Plant response rating, Ragweed: 70
oat, wild [22]; [24]
  Plant response rating, Oat, Wild: 80
oat, wild [22]; Test C, 125 g ai/ha
  Oat, Wild plant response rating: 50
oat, wild [23]; [25]
  Plant response rating, Oat, Wild: 60
oat, wild [23]; [26]
  Plant response rating, Oat, Wild: 80

## Cc1ccc(-n2cnc(C(C)C)n2)cc1C(=O)N1CC(C(F)(F)F)Oc2c(Cl)cccc21 (single isomer, unassigned) [Compound 292]
sedge, umbrella
  Plant response rating, Sedge, Umbrella (Flood): 0
pigweed, palmer [1]; 500 g ai/ha
  Pigweed, Palmer plant response rating: 100
pigweed, palmer [1]; Test C, 125 g ai/ha
  Pigweed, Palmer plant response rating: 100
Soybean [2]; 500 g ai/ha
  Soybean plant response rating: 90
Soybean [2]; Test C, 125 g ai/ha
  Soybean plant response rating: 40
Barnyardgrass [3]; 500 g ai/ha
  Barnyardgrass plant response rating: 90
Barnyardgrass [3]; Test C, 125 g ai/ha
  Barnyardgrass plant response rating: 20
Green foxtail [4]; 500 g ai/ha
  Foxtail, Green plant response rating: 100
Green foxtail [4]; Test C, 125 g ai/ha
  Foxtail, Green plant response rating: 90
Wheat [5]; [25]
  Plant response rating, Wheat: 20
Wheat [5]; [27]
  Plant response rating, Wheat: 30
galium; [25]
  Plant response rating, Galium: 70
galium; [27]
  Plant response rating, Galium: 80
horseweed; [25]
  Plant response rating, Horseweed: 20
horseweed; [27]
  Plant response rating, Horseweed: 60
Soybean [6]; [25]
  Plant response rating, Soybean: 100
Soybean [6]; [27]
  Plant response rating, Soybean: 100
Corn [7]; [25]
  Plant response rating, Corn: 10
Corn [7]; [27]
  Plant response rating, Corn: 20
ducksalad
  Plant response rating, Ducksalad (Flood): 0
Blackgrass [8]; 500 g ai/ha
  Blackgrass plant response rating: 90
Blackgrass [8]; Test C, 125 g ai/ha
  Blackgrass plant response rating: 30
Barnyardgrass [9]; [25]
  Plant response rating, Barnyardgrass: 10
Barnyardgrass [9]; [27]
  Plant response rating, Barnyardgrass: 20
Ragweed [10]; 500 g ai/ha
  Ragweed plant response rating: 20
Ragweed [10]; Test C, 125 g ai/ha
  Ragweed plant response rating: 20
Blackgrass [11]; [25]
  Plant response rating, Blackgrass: 0
Blackgrass [11]; [27]
  Plant response rating, Blackgrass: 20
ryegrass, Italian [12]; [25]
  Plant response rating, Ryegrass, Italian: 0
ryegrass, Italian [12]; [27]
  Plant response rating, Ryegrass, Italian: 60
rice
  Plant response rating, Rice (Flood): 0
Wheat [13]; 500 g ai/ha
  Wheat plant response rating: 50
Wheat [13]; Test C, 125 g ai/ha
  Wheat plant response rating: 20
Barnyardgrass [14]
  Plant response rating, Barnyardgrass (Flood): 0
Green foxtail [15]; [25]
  Plant response rating, Foxtail, Green: 30
Green foxtail [15]; [27]
  Plant response rating, Foxtail, Green: 40
Kochia [16]; 500 g ai/ha
  Kochia plant response rating: 60
Kochia [16]; Test C, 125 g ai/ha
  Kochia plant response rating: 30
pigweed, palmer [17]; [25]
  Plant response rating, Pigweed, Palmer: 80
pigweed, palmer [17]; [27]
  Plant response rating, Pigweed, Palmer: 80
Kochia [18]; [25]
  Plant response rating, Kochia: 70
Kochia [18]; [27]
  Plant response rating, Kochia: 90
ryegrass, Italian [19]; 500 g ai/ha
  Ryegrass, Italian plant response rating: 100
ryegrass, Italian [19]; Test C, 125 g ai/ha
  Ryegrass, Italian plant response rating: 90
Corn [20]; 500 g ai/ha
  Corn plant response rating: 10
Corn [20]; Test C, 125 g ai/ha
  Corn plant response rating: 10
Ragweed [21]; [25]
  Plant response rating, Ragweed: 30
Ragweed [21]; [27]
  Plant response rating, Ragweed: 20
oat, wild [22]; 500 g ai/ha
  Oat, Wild plant response rating: 80
oat, wild [22]; Test C, 125 g ai/ha
  Oat, Wild plant response rating: 40
oat, wild [23]; [25]
  Plant response rating, Oat, Wild: 0
oat, wild [23]; [27]
  Plant response rating, Oat, Wild: 50
